The target of test [1] is T1, PPARγ (Homo sapiens, UniProt P37231).
T1 construct: purchased Invitrogen Corporation, Carlsbad, Calif
T1 sequence (P37231 238-503 limits assumed): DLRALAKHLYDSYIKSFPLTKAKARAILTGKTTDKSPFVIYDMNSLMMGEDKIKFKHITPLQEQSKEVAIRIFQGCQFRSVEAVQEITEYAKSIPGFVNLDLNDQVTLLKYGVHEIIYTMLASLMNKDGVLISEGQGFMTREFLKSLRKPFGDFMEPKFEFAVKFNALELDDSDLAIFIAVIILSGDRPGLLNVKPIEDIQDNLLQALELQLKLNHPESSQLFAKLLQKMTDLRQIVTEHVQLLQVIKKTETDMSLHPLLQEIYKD
The test can be described thus: Commercial PPARγ binding assay (Invitrogen, PPAR-LBD/Fluormone PPAR Green complex). The following applies: for Activation of PPARγ / PPARγ ligand binding (Fluormone displacement signal): average (SEM) of three experiments in quadruplicate; for Binding to PPARγ (in words): summary of FIG. 1 and Table B. How it is done: The ability of several exemplary compounds of the present invention, shown in Table A, to bind to PPARγ was measured using a commercial binding assay (Invitrogen Corporation, Carlsbad, Calif.) that measures the test compounds ability to bind with PPAR-LBD/Fluormone PPAR Green complex. These assays were performed on three occasions with each assay using four separate wells (quadruplicate) at each concentration of tested compound. The data in Table B are average and SEM of three experiments, each of which were performed in quadruplicate on separate days. […] Compounds were added at the concentrations shown, which range from 0.1-100 micromolar.

Test [2] has as its system normal male Sprague-Dawley rats with Medrol-induced hypertension. Description: Prevention of Medrol-induced hypertension, mean blood pressure by direct femoral arterial cannulation. The test is classed as in vivo. The following applies: for Mean blood pressure, Fasted: after a 6 hour fast on day 8; for Mean blood pressure, Fasted / Mean blood pressure, Fed: daily dosing, Compound 1 40 mg/kg/day, Medrol 20 mg/kg/day, N=9, * p<0.05 less than Medrol-treated rats; for Mean blood pressure, Fed: fed conditions on day 7. The procedure: Hypertension was induced in normal male Sprague-Dawley rats by daily dosing with the glucocorticoid methylprednisolone (Medrol) for 8 days. Separate groups of rats received the vehicle (1% carboxymethylcellulose/0.01% Tween 20) by oral gavage and some of both the vehicle-treated and Medrol-treated rats also received daily doses of compound 1 as shown in Table C. Mean blood pressure was measured by direct femoral arterial cannulation under fed conditions on day 7 and after a 6 hour fast on day 8. The data are mean and (SEM) mean blood pressure obtained by direct cannulation. N=9; * p<0.05 less than blood pressure in Medrol-treated rats.

“Also recorded” adds a separate entry of the source.

The source of these data is patent publication US20090143441A1, “Combination therapies of Thiazolidinedione analogues” (priority 2006, published 2009).

Take `CCc1ccc(C(=CCO)COc2ccc(CC3SC(=O)NC3=O)cc2)nc1` (centres unmarked) [Compound 13]: the “Activation of PPARγ” value was 229 (20) in test [1] (compound at 1 μM), 230 (13) in test [1] (compound at 3 μM), 148 (23) in test [1] (compound at 50 μM) and 108 (5) in test [1] (compound at 100 μM). Moreover, the “PPARγ ligand binding (Fluormone displacement signal)” value (“PPARγ ligand binding” for short) in test [1] (compound at 10 μM) is on record as 204 (12); in test [1] (compound at .1 μM), 244 (9); in test [1] (compound at .3 μM), 243 (10).

`CCc1ccc(C(=CC(=O)OC)COc2ccc(CC3SC(=O)NC3=O)cc2)nc1` (centres unmarked) [Compound 11]: the “PPARγ ligand binding” value in test [1] (compound at 1 μM) was 232 (12); in test [1] (compound at 3 μM), 229 (10); in test [1] (compound at 10 μM) it was 165 (10); in test [1] (compound at 100 μM), 78 (3); in test [1] (compound at .1 μM), 230 (12); in test [1] (compound at .3 μM) it was 227 (9). In test [1] (compound at 50 μM), the “Activation of PPARγ” value was 128 (30).

For `CCc1ccc(C(=O)COc2ccc(CC3SC(=O)NC3=O)cc2)nc1` (centres unmarked) [Compound 1], the “PPARγ ligand binding” value in test [1] (compound at 1 μM) is given as 223 (12); in test [1] (compound at .3 μM), 232 (8). Also, the “Activation of PPARγ” value in test [1] (compound at 3 μM) is given as 228 (6); in test [1] (compound at 10 μM), 207 (13); in test [1] (compound at 50 μM), 174 (28); in test [1] (compound at 100 μM), 170 (35); in test [1] (compound at .1 μM), 227 (1). Besides, the “Binding to PPARγ (in words)” value in test [1] is recorded as “particularly poor binders to PPARγ”. In addition, the “Mean blood pressure, Fasted” value in test [2] worked out at 108. For the same compound, the “Mean blood pressure, Fed” value in test [2] worked out at 108. In test [2] (hypertension generated by treatment with a glucocorticoid, FIG. 2 and Table C), the “Antihypertensive action (in words)” value is “unexpected antihypertensive action; also recorded: significantly lowered blood pressure”.

In the case of `CCc1ccc(CCOc2ccc(CC3(C)SC(=O)NC3=O)cc2)nc1` (centres unmarked) [Compound 6], the “PPARγ ligand binding” value is listed as 233 (11) in test [1] (compound at 1 μM); 223 (7) in test [1] (compound at 3 μM); 198 (10) in test [1] (compound at 10 μM); 99 (12) in test [1] (compound at 100 μM); 246 (7) in test [1] (compound at .1 μM); 246 (9) in test [1] (compound at .3 μM). Also, in test [1] (compound at 50 μM), the “Activation of PPARγ” value is recorded as 126 (17).

As for `CCc1ccc(C(=O)COc2ccc(CC3(C)SC(=O)NC3=O)cc2)nc1` (centres unmarked) [Compound 10], the “Activation of PPARγ” value is 240 (2) in test [1] (compound at 1 μM), 219 (5) in test [1] (compound at 10 μM), 245 (2) in test [1] (compound at .1 μM) and 239 (2) in test [1] (compound at .3 μM). The results for the “PPARγ ligand binding” value in test [1] (compound at 3 μM), in test [1] (compound at 50 μM) and in test [1] (compound at 100 μM) were 234 (3), 126 (3) and 93 (3), respectively.

`CCc1ccc([C@H](O)COc2ccc(CC3(C)SC(=O)NC3=O)cc2)nc1` (some centres unmarked) [Compound 9]: the “Activation of PPARγ” value is recorded as 239 (13) in test [1] (compound at 1 μM); 189 (19) in test [1] (compound at 50 μM); 164 (20) in test [1] (compound at 100 μM); 237 (5) in test [1] (compound at .1 μM); 237 (4) in test [1] (compound at .3 μM). For the same compound, the “PPARγ ligand binding” value is listed as 233 (9) in test [1] (compound at 3 μM) and 234 (12) in test [1] (compound at 10 μM).

Take `CCc1ccc(C(O)COc2ccc(CC3(C)SC(=O)NC3=O)cc2)nc1` (centres unmarked) [Compound 5]: the “PPARγ ligand binding” value is given as 228 (9) in test [1] (compound at 1 μM); 226 (8) in test [1] (compound at 3 μM); 212 (11) in test [1] (compound at 10 μM); 132 (12) in test [1] (compound at 50 μM); 106 (7) in test [1] (compound at 100 μM); 235 (8) in test [1] (compound at .1 μM). In addition, in test [1] (compound at .3 μM), the “PPARγ ligand binding” value was 230 (10).

As for `CCc1ccc([C@@H](O)COc2ccc(CC3(C)SC(=O)NC3=O)cc2)nc1` (some centres unmarked) [Compound 8], the “Activation of PPARγ” value is listed as 239 (5) in test [1] (compound at 1 μM), 186 (16) in test [1] (compound at 100 μM), 237 (6) in test [1] (compound at .1 μM) and 243 (5) in test [1] (compound at .3 μM). The “PPARγ ligand binding” value in test [1] (compound at 3 μM) is 241 (10); in test [1] (compound at 10 μM), 233 (7); in test [1] (compound at 50 μM) it was 199 (15).

As to `CCc1ccc(CCOc2ccc(CC3(C)SC(=O)NC3=O)cc2)nc1` (centres unmarked) [Compound 4], the “PPARγ ligand binding” value is on record as 234 (11) in test [1] (compound at 1 μM), 224 (15) in test [1] (compound at 3 μM), 200 (8) in test [1] (compound at 10 μM) and 91 (11) in test [1] (compound at 100 μM). Moreover, the “Activation of PPARγ” value in test [1] (compound at 50 μM) is 122 (21); in test [1] (compound at .1 μM), 236 (13); in test [1] (compound at .3 μM), 230 (14).

Take `CCc1ccc(C(COc2ccc(CC3SC(=O)NC3=O)cc2)CC(=O)OC)nc1` (centres unmarked) [Compound 12]: the figures for the “Activation of PPARγ” value in test [1] (compound at 1 μM), in test [1] (compound at 50 μM) and in test [1] (compound at .3 μM) were 198 (6), 80 (2) and 222 (4), respectively. Moreover, the “PPARγ ligand binding” value in test [1] (compound at 3 μM) was 155 (8); in test [1] (compound at 10 μM), 112 (12); in test [1] (compound at 100 μM), 85 (3); in test [1] (compound at .1 μM) it was 243 (3).

On to `C[C@H]1C[C@@H]2[C@H]([C@@H](O)C[C@@]3(C)[C@H]2CC[C@]3(O)C(=O)CO)[C@@]2(C)C=CC(=O)C=C12` [Medrol, methylprednisolone, reference compound], for which, in test [2], the “Mean blood pressure, Fasted” value is 122 and the “Mean blood pressure, Fed” value is given as 123.

Consider `CCc1ccc(CCOc2ccc(CC3(C)SC(=O)NC3=O)cc2)nc1` (centres unmarked) [Compound 7], for which the “Activation of PPARγ” value is reported as 248 (13) in test [1] (compound at 1 μM) and 246 (5) in test [1] (compound at .3 μM). Moreover, the “PPARγ ligand binding” value is recorded as 237 (7) in test [1] (compound at 3 μM); 210 (9) in test [1] (compound at 10 μM); 144 (15) in test [1] (compound at 50 μM); 105 (10) in test [1] (compound at 100 μM); 249 (9) in test [1] (compound at .1 μM).

With `CCc1ccc(C(=CC(=O)OC)COc2ccc(CC3SC(=O)NC3=O)cc2)nc1` (centres unmarked) [Compound 3], the “PPARγ ligand binding” value is given as 203 (15) in test [1] (compound at 1 μM), 77 (7) in test [1] (compound at 100 μM) and 221 (10) in test [1] (compound at .3 μM). In addition, the “Activation of PPARγ” value in test [1] (compound at 3 μM) was 185 (17); in test [1] (compound at 10 μM), 134 (1); in test [1] (compound at 50 μM), 88 (6); in test [1] (compound at .1 μM) it was 226 (17).

With `CCc1ccc([C@@H](O)COc2ccc(CC3SC(=O)NC3=O)cc2)nc1` (some centres unmarked) [Compound 2], the “PPARγ ligand binding” value in test [1] (compound at 1 μM) was 238 (12); in test [1] (compound at 10 μM), 223 (11); in test [1] (compound at 50 μM), 162 (8); in test [1] (compound at 100 μM), 136 (11); in test [1] (compound at .1 μM) it was 231 (15); in test [1] (compound at .3 μM), 233 (15). Besides, in test [1] (compound at 3 μM), the “Activation of PPARγ” value is given as 236 (13). In test [1], the “Binding to PPARγ (in words)” value is on record as “particularly poor binders to PPARγ; also recorded: PPARγ-sparing compound”.
